Converted amounts (≈) assume the structure as drawn.
Key:
[1] = Antioxidant activity assessed as FRAP values at 25 ug/ml incubated at 37 degC for 5 mins by FeSO4.7H2O calibration curve based method; type: physicochemical
[2] = Antioxidant activity assessed as FRAP values at 50 ug/ml incubated at 37 degC for 5 mins by FeSO4.7H2O calibration curve based method; type: physicochemical
[3] = Antioxidant activity assessed as ABTS radical scavenging activity after 15 mins; type: physicochemical
[4] = Cytotoxicity against human SGC7901 cells by MTT assay; type: functional, cell-based; conditions: SGC-7901
[5] = Antioxidant activity assessed as DPPH radical scavenging activity after 30 mins by microplate reader based assay; type: physicochemical
[6] = tested on: A549; assay: Cytotoxicity against human A549 cells by MTT assay; type: functional, cell-based
[7] = tested on: HeLa; assay: Cytotoxicity against human HeLa cells by MTT assay; type: functional, cell-based
[8] = Antioxidant activity assessed as FRAP values at 12.5 ug/ml incubated at 37 degC for 5 mins by FeSO4.7H2O calibration curve based method; type: physicochemical
[9] = Antioxidant activity assessed as FRAP values at 100 ug/ml incubated at 37 degC for 5 mins by FeSO4.7H2O calibration curve based method; type: physicochemical

Row | SMILES | Activity [1] [µmol/L] | Activity [2] [µmol/L] | IC50 [3] [µg/mL] | IC50 [4] [µg/mL] | IC50 [5] [µg/mL] | IC50 [6] [µg/mL] | IC50 [7] [µg/mL] | Activity [8] [µmol/L] | Activity [9] [µmol/L]
1 | O=C(OC[C@H]1O[C@@H](Oc2cc(-c3ccccc3)oc(=O)c2)[C@H](O)[C@@H](O)[C@@H]1O)c1cc(O)c(O)c(O)c1 | 143.76 | 250.53 | 5.47 (≈ 10.9 µM) | 4.28 (≈ 8.51 µM) | 13.07 (≈ 26 µM) | 7.29 (≈ 14.5 µM) | 3.25 (≈ 6.46 µM) | 91.28 | 386.38
2 | Cc1c(O)cc(O[C@@H]2O[C@H](CO)[C@@H](O)[C@H](O)[C@H]2O)c(C(=O)c2ccccc2)c1O |  |  | 29.27 (≈ 72 µM) | > 10 | > 100 | > 10 | > 10 |  | 
3 | Cc1c(O)c(C)c(O[C@@H]2O[C@H](CO)[C@@H](O)[C@H](O)[C@H]2O)c(C(=O)c2ccccc2)c1O | 14 | 23.73 | 32.97 (≈ 78.4 µM) | > 10 | > 100 | > 10 | > 10 | 11.54 | 46.37
4 | O=C(OC[C@H]1O[C@@H](Oc2cc(O)c(C(=O)c3ccccc3)c(O)c2)[C@H](O)[C@@H](O)[C@@H]1O)c1cc(O)c(O)c(O)c1 | 53.29 | 131.03 | 13.63 (≈ 25 µM) | > 10 | 37.93 (≈ 69.7 µM) | > 10 | > 10 | 18.46 | 174.6
5 | Cc1c(O)c(C(=O)c2ccccc2)c(O)c(C)c1O[C@@H]1O[C@H](COC(=O)c2cc(O)c(O)c(O)c2)[C@@H](O)[C@H](O)[C@H]1O | 90.63 | 185.03 | 8.3 (≈ 14.5 µM) | > 10 | 28.33 (≈ 49.5 µM) | > 10 | > 10 | 48.3 | 341.94
6 | C/C(=C/O[C@@H]1O[C@H](COC(=O)c2cc(O)c(O)c(O)c2)[C@@H](O)[C@H](O)[C@H]1O)C(=O)O | 152.02 | 263.31 | 5.93 (≈ 14.2 µM) | 3.73 (≈ 8.96 µM) | 13.1 (≈ 31.5 µM) | 7.01 (≈ 16.8 µM) | 3.51 (≈ 8.44 µM) | 70.64 | 413.94
7 | O=C1O[C@H]([C@@H](O)CO)C(O)=C1O [ASCORBIC ACID] | 292.1 | 396.76 | 8.53 (≈ 48.4 µM) |  | 16.3 (≈ 92.5 µM) |  |  | 149.97 | 442.43
8 | O=c1c(O[C@@H]2O[C@@H](CO)[C@H](O)[C@H]2O)c(-c2ccc(O)c(O)c2)oc2cc(O)cc(O)c12 [AVICULARIN] | 269 | 291.63 | 6.9 (≈ 15.9 µM) | > 10 | 16.13 (≈ 37.1 µM) | > 10 | > 10 | 123.88 | 324.58
9 | COc1cccc2c1C(=O)c1c(O)c3c(c(O)c1C2=O)C[C@@](O)(C(=O)CO)C[C@@H]3O[C@H]1C[C@H](N)[C@H](O)[C@H](C)O1 [DOXORUBICIN] |  |  |  | 1.36 (≈ 2.5 µM) |  | 3.12 (≈ 5.74 µM) | 2.68 (≈ 4.94 µM) |  | 
10 | O=c1c(O[C@@H]2OC[C@H](O)[C@H](O)[C@H]2O)c(-c2ccc(O)c(O)c2)oc2cc(O)cc(O)c12 [GUAJAVERIN] | 175.59 | 220.51 | 6.7 (≈ 15.4 µM) | > 10 | 13.43 (≈ 30.9 µM) | > 10 | > 10 | 57.21 | 346.45
11 | O=c1c(O[C@@H]2O[C@H](CO)[C@H](O)[C@H](O)[C@H]2O)c(-c2ccc(O)c(O)c2)oc2cc(O)cc(O)c12 [HYPEROSIDE] | 155.89 | 287.94 | 10.57 (≈ 22.8 µM) | > 10 | 27.03 (≈ 58.2 µM) | > 10 | > 10 | 68.06 | 329.68
12 | O=c1c(O)c(-c2ccc(O)c(O)c2)oc2cc(O)cc(O)c12 [QUERCETIN] | 359.18 | 379.4 | 4.4 (≈ 14.6 µM) | 7.88 (≈ 26.1 µM) | 11 (≈ 36.4 µM) | > 10 | 8.26 (≈ 27.3 µM) | 333.26 | 401.27
